# Measured values: patent publication US20250163074A1, “CDK Inhibitors And Their Use As Pharmaceuticals” (Prelude Therapeutics Incorporated, priority 2020, published 2025)
# Legend:
# [1] = target: CDK6/Cyclin D1 (Homo sapiens (Human), UniProt Q00534); experiment: CDK6/CyclinD1 enzymatic activity assay (TR-FRET); format: biochemical; conditions: CDK6/Cyclin D1 1 nM, ATP 250 μM, read-out: CDK6_D1 IC50
# Protocol: CDK6/CyclinD1 Enzymatic Activity Assay
# The inhibitory activity of compounds was evaluated in vitro using TR-FRET assay with white 384-well low volume microplate (Greiner Bio-One). CDK6/Cyclin D1 catalyzed phosphorylation of peptide in the presence and absence of compounds was measured and used in IC50 determination. Recombinant protein complex CDK6/Cyclin D1, expressed from insect cell, was purchased from ProQinase. Testing compounds were dissolved in DMSO at 0.1 mM and tested in 9-dose IC50 mode. The reaction mixture was prepared by mixing CDK6/Cyclin D1 (1 nM final), ULight-4E-BP1 (100 nM final, Perkinelmer, TRF0128-D), and ATP (250 μM final) in assay buffer (20 mM of HEPES pH 7.4, 1 mM of EGTA, 0.05% BSA, 0.005% Tween 20, and 1 mM TCEP). The compound of interest in DMSO was added to each well in 3-fold serial dilution by dispenser (TECAN D300E). After 20 minutes preincubation at room temperature, 0.1 μL MgCl2 (10 mM final) was added to initiate the reaction. Following a 60 minutes incubation at 37° C., the reaction was stopped by addition of 2 μL of quenching buffer consisting of Lance detection buffer (Perkinelmer CR97-100C), 2 nM LANCE Ultra Europium-anti-P-4E-BP1 (Perkinelmer, TRF0216-D), 10 mM EDTA, and incubate at room temperature for additional 60 minutes in dark. The reaction signal was measured by Envision multimode plate reader (PerkinElmer, 2102-0010). IC50 values were determined by fitting the data to the standard 4 parameters with Hill Slope using GraphPad Prism software.
# [2] = target: CDK4/Cyclin D1 (Homo sapiens (Human), UniProt P11802); experiment: CDK4/CyclinD1 enzymatic activity assay (TR-FRET); format: biochemical; conditions: CDK4/CyclinD1 1 nM, ATP 2 mM, read-out: CDK4_D1 IC50
# CDK4/Cyclin D1, sequence (P11802 whole entry): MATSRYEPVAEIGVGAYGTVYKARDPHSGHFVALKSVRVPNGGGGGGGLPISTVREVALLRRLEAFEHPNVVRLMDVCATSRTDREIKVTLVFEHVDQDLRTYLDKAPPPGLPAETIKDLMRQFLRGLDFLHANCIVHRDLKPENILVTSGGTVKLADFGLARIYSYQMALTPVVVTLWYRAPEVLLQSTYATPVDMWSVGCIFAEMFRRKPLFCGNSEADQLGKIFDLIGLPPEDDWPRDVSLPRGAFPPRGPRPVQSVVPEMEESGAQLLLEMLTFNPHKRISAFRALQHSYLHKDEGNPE
# CDK4/Cyclin D1, sequence (P24385 whole entry partner): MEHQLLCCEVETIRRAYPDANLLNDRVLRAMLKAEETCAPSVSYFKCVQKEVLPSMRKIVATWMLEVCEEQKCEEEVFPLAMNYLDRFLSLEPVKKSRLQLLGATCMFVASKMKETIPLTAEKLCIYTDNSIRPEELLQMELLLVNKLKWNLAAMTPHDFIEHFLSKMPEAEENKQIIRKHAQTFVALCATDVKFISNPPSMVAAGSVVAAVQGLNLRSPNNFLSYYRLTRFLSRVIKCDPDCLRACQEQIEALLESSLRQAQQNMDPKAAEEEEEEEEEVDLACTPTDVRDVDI
# Summary of the method: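 Insect-cell CDK4/Cyclin D1 (1 nM) with ULight-4E-BP1 (100 nM) and 2 mM ATP in HEPES pH 7.4 buffer, preincubated 20 min with compound (9-dose, 3-fold dilutions); 10 mM MgCl2 started the reaction, run 60 min at 37 °C. EDTA/Eu-anti-phospho-4E-BP1 TR-FRET detection; IC50 from 4-parameter Hill fit.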
# [3] = Brain-to-plasma ratio determination in Sprague-Dawley rats; format: in vivo; conditions: rat, male Sprague-Dawley rats, four hours after a single oral dose (3, 4, 5, or 10 mg/kg)
# Protocol: Example B: Brain-to-Plasma Ratio Determination in Sprague-Dawley Rats
# The brain-to-plasma ratio (Kp) was determined in male Sprague-Dawley rats (7-9 weeks old) four hours after a single oral dose. Rats were acclimated and given free access to standard rodent chow and water throughout the entire study. Test articles were formulated as a solution at 0.3, 0.4, 0.5, or 1.0 mg/mL in a vehicle comprised of 10:15:75 (v:v:v) dimethylacetamide (DMA):Solutol HS15:water and delivered orally at a rate of 10 mL/kg to three rats to achieve final doses of 3, 4, 5, or 10 mg/kg, respectively. At 4 hours post-dose, blood samples were collected via jugular vein cannula into tubes containing K2EDTA as the anticoagulant and stored on ice. Blood samples were then centrifuged at 4° C. at 6000 rpm for 5 minutes, and the resulting plasma was placed into tubes and stored frozen at −80° C. until analysis. Whole brain samples were also collected at 4 hours post-dose. The weight of each brain was measured and recorded, and samples were immediately stored on dry ice. Brain samples were then transferred to storage at −80° C. until analysis.
# Prior to analysis, brain samples were combined with water (4 mL/1 gram of brain) and homogenized. Prior to injection, plasma and brain homogenate samples and standards were prepared for analysis by precipitation with acetonitrile or 1:1 (v:v) methanol:acetonitrile. Samples were then thoroughly mixed, centrifuged at 4000 rpm for 15 minutes, and the resulting supernatant was transferred for analysis. Test article concentrations in plasma and brain homogenate were then determined by LC-MS/MS and quantified against calibration standards prepared to known concentrations in matched blank (analyte-free) biological matrix. The Kp was then determined by dividing the dilution-corrected brain concentration by the plasma concentration from each rat. A brain density of 1 gram/mL was assumed for all calculations.
# [4] = test system: MCF7 adenocarcinoma cell line; experiment: Cell proliferation studies in MCF7 cells (ATP-Lite); format: cell-based; conditions: Homo sapiens, 240 h, 10 days incubation, cell viability by ATP-Lite luminescence, read-out: PROLIFERATION_CTG_MCF7 IC50
# Summary of the method: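 MCF7 cells, seeded at 100 or 200 cells/well, were exposed for 10 days at 37 °C to a 9-point, 3-fold dilution series in quadruplicate, with media exchange and re-dosing on day 5. Viability was read by ATP-Lite luminescence, normalized to background and DMSO, and fitted for IC50.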
# CDK6/Cyclin D1, sequence (Q00534 whole entry): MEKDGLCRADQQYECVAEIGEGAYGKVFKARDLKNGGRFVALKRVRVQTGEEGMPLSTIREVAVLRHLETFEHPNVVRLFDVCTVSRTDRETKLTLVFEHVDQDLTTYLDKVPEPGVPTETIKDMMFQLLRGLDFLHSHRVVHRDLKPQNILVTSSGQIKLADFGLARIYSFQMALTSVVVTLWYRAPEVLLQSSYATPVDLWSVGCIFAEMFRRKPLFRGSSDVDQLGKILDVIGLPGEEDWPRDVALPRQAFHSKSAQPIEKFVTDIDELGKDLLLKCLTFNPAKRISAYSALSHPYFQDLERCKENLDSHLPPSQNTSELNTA
# CDK6/Cyclin D1, sequence (P24385 whole entry partner): as the sequence (P24385 whole entry partner) above
Structure (SMILES),IC50 [1] [nM],IC50 [2] [nM],Kp at 4 h [3],IC50 [4] [nM]
"CCN1CC2(C1)CN(c1ccc(Nc3ncc(F)c(-c4cc5c(s4)C4(CCCC4)CN(C)C5=O)n3)nc1)C2 [Example 1, 2′-(2-((5-(6-Ethyl-2,6-diazaspiro[3.3]heptan-2-yl)pyridin-2-yl)amino)-5-fluoropyrimidin-4-yl)-5′-methyl-5′,6′-dihydro-4′H-spiro[cyclopentane-1,7′-thieno[3,2-c]pyridin]-4′-one]",≤ 20,≤ 20,1 to 3,20 to 200
"CN1CCC(c2ccc(Nc3ncc(F)c(-c4cc5c(s4)C4(CCCC4)CN(C)C5=O)n3)nc2)CC1 [Example 2, 2′-(5-Fluoro-2-((5-(1-methylpiperidin-4-yl)pyridin-2-yl)amino)pyrimidin-4-yl)-5′-methyl-5′,6′-dihydro-4′H-spiro[cyclopentane-1,7′-thieno[3,2-c]pyridin]-4′-one]",≤ 20,≤ 20,1 to 3,20 to 200
"CCN1CCN(c2ccc(Nc3ncc(F)c(-c4cc5c(s4)C4(CCCC4)CN(C)C5=O)n3)nc2)CC1 [Example 3, 2′-(2-((5-(4-Ethylpiperazin-1-yl)pyridin-2-yl)amino)-5-fluoropyrimidin-4-yl)-5′-methyl-5′,6′-dihydro-4′H-spiro[cyclopentane-1,7′-thieno[3,2-c]pyridin]-4′-one]",≤ 20,≤ 20,≥ 3,20 to 200
"CCN1CC2(C1)CN(c1ccc(Nc3ncc(F)c(-c4cc5c(s4)C4(CCCCC4)CN(C)C5=O)n3)nc1)C2 [Example 4, 2′-(2-((5-(6-Ethyl-2,6-diazaspiro[3.3]heptan-2-yl)pyridin-2-yl)amino)-5-fluoropyrimidin-4-yl)-5′-methyl-5′,6′-dihydro-4′H-spiro[cyclohexane-1,7′-thieno[3,2-c]pyridin]-4′-one]",20 to 200,≤ 20,1 to 3,20 to 200
"Cc1c(-c2nc(Nc3ccc(C4CCN(C)CC4)cn3)ncc2F)sc2c1C(=O)N(C)C21CC1 [Example 6, 2′-(5-Fluoro-2-((5-(1-methylpiperidin-4-yl)pyridin-2-yl)amino)pyrimidin-4-yl)-3′,5′-dimethylspiro[cyclopropane-1,6′-thieno[2,3-c]pyrrol]-4′(5′H)-one]",≤ 20,≤ 20,1 to 3,20 to 200
"CCN1C(=O)c2c(sc(-c3nc(Nc4ccc(C5CCN(C)CC5)cn4)ncc3F)c2C)C12CC2 [Example 7, 5′-Ethyl-2′-(5-fluoro-2-((5-(1-methylpiperidin-4-yl)pyridin-2-yl)amino)pyrimidin-4-yl)-3′-methylspiro[cyclopropane-1,6′-thieno[2,3-c]pyrrol]-4′(5′H)-one]",≤ 20,≤ 20,1 to 3,20 to 200
"CCN1CC2(C1)CN(c1ccc(Nc3ncc(F)c(-c4sc5c(c4C)C(=O)N(C)C54CC4)n3)nc1)C2 [Example 12, 2′-(2-((5-(6-Ethyl-2,6-diazaspiro[3.3]heptan-2-yl)pyridin-2-yl)amino)-5-fluoropyrimidin-4-yl)-3′,5′-dimethylspiro[cyclopropane-1,6′-thieno[2,3-c]pyrrol]-4′(5′H)-one]",≤ 20,≤ 20,< 1,≤ 20
"Cc1c(-c2nc(Nc3ccc(N4CC5(CCN(C)C5)C4)cn3)ncc2F)sc2c1C(=O)N(C)C21CC1 [Example 14, 2′-(5-Fluoro-2-((5-(6-methyl-2,6-diazaspiro[3.4]octan-2-yl)pyridin-2-yl)amino)pyrimidin-4-yl)-3′,5′-di methyl spiro[cyclopropane-1,6′-thieno[2,3-c]pyrrol]-4′(5′H)-one]",–,≤ 20,1 to 3,≤ 20
"Cc1c(-c2nc(Nc3ccc(C4CCCN(C)C4)cn3)ncc2F)sc2c1C(=O)N(C)C21CC1 (stereo not shown) [Example 15, 2′-(5-Fluoro-2-((5-(1-methylpiperidin-3-yl)pyridin-2-yl)amino)pyrimidin-4-yl)-3′,5′-dimethylspiro[cyclopropane-1,6′-thieno[2,3-c]pyrrol]-4′(5′H)-one]",–,≤ 20,1 to 3,20 to 200
"CCN1C(=O)c2cc(-c3nc(Nc4ccc(C5CCCN(C)C5)cn4)ncc3C)sc2C12CC2 (stereo not shown) [Example 18, 5′-Ethyl-2′-[5-methyl-2-[[5-(1-methylpiperidin-3-yl)pyridin-2-yl]amino]pyrimidin-4-yl]spiro[cyclopropane-1,6′-thieno[2,3-c]pyrrole]-4′-one]",–,≤ 20,1 to 3,20 to 200
"CN1CCC(c2ccc(Nc3ncc(F)c(-c4cc5c(n4C)C4(CCCC4)CN(C)C5=O)n3)nc2)CC1 [Example 74, 2′-(5-Fluoro-2-((5-(1-methylpiperidin-4-yl)pyridin-2-yl)amino)pyrimidin-4-yl)-1′,5′-dimethyl-5′,6′-dihydrospiro[cyclopentane-1,7′-pyrrolo[3,2-c]pyridin]-4′(1′H)-one]",20 to 200,≤ 20,–,20 to 200
"CN1CCC(c2ccc(Nc3ncc(F)c(-c4cc5c(s4)C4(CCOCC4)CN(C)C5=O)n3)nc2)CC1 [Example 77, 2′-(5-Fluoro-2-((5-(1-methylpiperidin-4-yl)pyridin-2-yl)amino)pyrimidin-4-yl)-5′-methyl-2,3,5,5′,6,6′-hexahydro-4′H-spiro[pyran-4,7′-thieno[3,2-c]pyridin]-4′-one]",20 to 200,≤ 20,–,20 to 200
"Cc1cnc(Nc2ccc(C3CCN(C)CC3)cn2)nc1-c1cc2c(s1)C1(CC1)N(C)C2=O [Example 80, 5′-Methyl-2′-(5-methyl-2-((5-(1-methylpiperidin-4-yl)pyridin-2-yl)amino)pyrimidin-4-yl)spiro[cyclopropane-1,6′-thieno[2,3-c]pyrrol]-4′(5′H)-one]",20 to 200,≤ 20,–,≤ 20
"CCN1CC2(C1)CN(c1ccc(Nc3ncc(F)c(-c4cc5c(s4)C4(CCCC4)CN(C)C5=O)n3)nn1)C2 [Example 82, 2-[2-[[6-(6-Ethyl-2,6-diazaspiro[3.3]heptan-2-yl)pyridazin-3-yl]amino]-5-fluoropyrimidin-4-yl]-5-methylspiro[6H-thieno[3,2-c]pyridine-7,1′-cyclopentane]-4-one]",≤ 20,≤ 20,–,20 to 200
"CCN1CCN(c2ccc(Nc3ncc(F)c(-c4cc5c(s4)C4(CCCC4)CN(C)C5=O)n3)nc2)C(=O)C1 [Example 86, 2-[2-[[5-(4-Ethyl-2-oxopiperazin-1-yl)pyridin-2-yl]amino]-5-fluoropyrimidin-4-yl]-5-methylspiro[6H-thieno[3,2-c]pyridine-7,1′-cyclopentane]-4-one]",20 to 200,≤ 20,–,20 to 200
